Measured values from patent US20100204248A1, “MEDICAMENTS AND METHODS FOR INHIBITION OF NON-OCULAR SCARRING” (Renovo Limited, priority 2007, published 2010).

Key:
NR4A3 = NR4A3 (Homo sapiens, UniProt Q92570); conditions: cited from earlier work
excisional wounds = assay: Excisional wound healing model, 5 mm punch biopsy wounds harvested day 3; type: in vivo, Sprague Dawley rats
Procedure: One hundred microlitres of 6-mercaptopurine at 1 ng, 10 ng or 1000 ng in phosphate buffered saline (PBS, pH 7.2; GIBCO BRL, Cat. #20012-019) containing 5% ethanol was injected intradermally at the wound sites. […] Separate groups of rats used as naïve controls and diluent controls. Naïve control animals were wounded without treatment, whilst diluent control animals were injected with 100 μl of the PBS/ethanol mixture prior to wounding. […] For microscopic assessment the scars were excised from the experimental rats (incorporating a small amount of surrounding normal tissue) and fixed in 10% (v/v) buffered formal saline. […]

NR4A2 = NR4A2 (Homo sapiens, UniProt P43354); conditions: cited from earlier work
[1] = system: full thickness cutaneous incisional wounds; assay: Scarring model: rat incisional wounds, macroscopic and microscopic VAS scar assessment at day 70; type: in vivo, Sprague Dawley rats; conditions: for macroscopic appearance of scars (macroscopic VAS): before wounding and 1 day post-wounding; for macroscopic appearance of scars (macroscopic VAS) / microscopic appearance of scars (microscopic VAS): vs naïve control or diluent control
Procedure: At day 0, male Sprague Dawley rats (200-250 g) were anaesthetised, shaved and wound sites were marked according to the Renovo rat incisional wounding template (2 wound model, 2×1 cm wounds, 5 cm from the base of the skull and 1 cm from the midline in each rat). One hundred microlitres of 6-mercaptopurine at 1 ng, 10 ng or 1000 ng in phosphate buffered saline (PBS, pH 7.2; GIBCO BRL, Cat. #20012-019) containing 5% ethanol was injected intradermally at the wound sites. […] Separate groups of rats used as naïve controls and diluent controls. Naïve control animals were wounded without treatment, whilst diluent control animals were injected with 100 μl of the PBS/ethanol mixture prior to wounding. All treated or diluent control wounds were re-injected again 1 day post-wounding with the appropriate treatment via injection of 50 μl to each of the two margins of the 1 cm wound. Wounds from the treated, naïve control and diluent control animals were all harvested at day 70 post-wounding. The wounds were photographed after wounding, prior to re-injection on day 1 and on day of harvest. The scars were assessed using standard macroscopic scar assessment using a visual analogue scale (VAS) consisting of a 0-10 cm line representing a scale, from left to right, of 0 (corresponding to normal skin) to 10 (indicative of a bad scar). For microscopic assessment the scars were excised from the experimental rats (incorporating a small amount of surrounding normal tissue) and fixed in 10% (v/v) buffered formal saline. The fixed tissue was then processed for wax histology, stained using Masson's trichrome, and scarring assessed using a microscopic visual analogue scale (VAS).

incisional wounds = assay: Incisional wound healing model, wounds harvested three days post-wounding; type: in vivo, Sprague Dawley rats
Procedure: At day 0, male Sprague Dawley rats (200-250 g) were anaesthetised, shaved and wound sites were marked according to the Renovo rat incisional wounding template (2 wound model, 2×1 cm wounds, 5 cm from the base of the skull and 1 cm from the midline in each rat). One hundred microlitres of 6-mercaptopurine at 1 ng, 10 ng or 1000 ng in phosphate buffered saline (PBS, pH 7.2; GIBCO BRL, Cat. #20012-019) containing 5% ethanol was injected intradermally at the wound sites. The intradermal injections caused the formation of a raised bleb, which was then immediately incised to form 1 cm long experimental wounds. Separate groups of rats used as naïve controls and diluent controls. Naïve control animals were wounded without treatment, whilst diluent control animals were injected with 100 μl of the PBS/ethanol mixture prior to wounding. All treated or diluent control wounds were re-injected again 1 day post-wounding with the appropriate treatment via injection of 50 μl to each of the two margins of the 1 cm wound. Wounds from the treated, naïve control and diluent control animals were all harvested at day 70 post-wounding.
Treated and control incisional wounds were created as described above, to allow assessment of the effects of NR4A agonists, such as 6-mercaptopurines, on wound healing. Wounds from the treated, naïve control and diluent control animals were all harvested at three days post-wounding.
The wounds were photographed after wounding, prior to re-injection on day one and on the day of harvest. Day three incisional or excisional wounds were excised from the experimental rats (incorporating a small amount of surrounding normal tissue). […] The fixed tissue was then processed for wax histology, stained using Masson's trichrome, and wound width assessed using image analysis software. Width of incisional wounds was measured at a point mid-way through the depth of the wound, whereas width of excisional wounds was measured at the top of the wounds.

NR4A1 = NR4A1 (Homo sapiens, UniProt P22736); conditions: cited from earlier work
[2] = day 3, measured at top of wound, 1, 10 or 1000 ng/100 μl intradermal
[3] = day 3, measured mid-way through wound depth, 1, 10 or 1000 ng/100 μl intradermal

NR4A2, sequence (P43354 whole entry): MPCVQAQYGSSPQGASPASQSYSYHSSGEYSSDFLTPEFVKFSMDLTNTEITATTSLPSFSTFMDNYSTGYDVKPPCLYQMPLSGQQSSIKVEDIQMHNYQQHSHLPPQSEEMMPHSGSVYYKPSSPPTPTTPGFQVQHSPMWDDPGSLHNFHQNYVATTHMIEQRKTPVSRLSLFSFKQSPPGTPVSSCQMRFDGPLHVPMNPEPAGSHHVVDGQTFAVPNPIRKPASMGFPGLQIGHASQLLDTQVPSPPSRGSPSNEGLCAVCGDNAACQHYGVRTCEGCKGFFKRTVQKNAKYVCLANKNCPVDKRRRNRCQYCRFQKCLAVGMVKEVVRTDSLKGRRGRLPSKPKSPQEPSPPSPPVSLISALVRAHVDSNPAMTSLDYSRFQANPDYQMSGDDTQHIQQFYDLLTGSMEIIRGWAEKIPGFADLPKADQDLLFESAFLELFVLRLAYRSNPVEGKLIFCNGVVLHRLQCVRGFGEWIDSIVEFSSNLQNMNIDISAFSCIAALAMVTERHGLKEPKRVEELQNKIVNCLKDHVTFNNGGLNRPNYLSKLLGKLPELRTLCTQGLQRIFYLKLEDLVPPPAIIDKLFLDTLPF
NR4A1, sequence (P22736 whole entry): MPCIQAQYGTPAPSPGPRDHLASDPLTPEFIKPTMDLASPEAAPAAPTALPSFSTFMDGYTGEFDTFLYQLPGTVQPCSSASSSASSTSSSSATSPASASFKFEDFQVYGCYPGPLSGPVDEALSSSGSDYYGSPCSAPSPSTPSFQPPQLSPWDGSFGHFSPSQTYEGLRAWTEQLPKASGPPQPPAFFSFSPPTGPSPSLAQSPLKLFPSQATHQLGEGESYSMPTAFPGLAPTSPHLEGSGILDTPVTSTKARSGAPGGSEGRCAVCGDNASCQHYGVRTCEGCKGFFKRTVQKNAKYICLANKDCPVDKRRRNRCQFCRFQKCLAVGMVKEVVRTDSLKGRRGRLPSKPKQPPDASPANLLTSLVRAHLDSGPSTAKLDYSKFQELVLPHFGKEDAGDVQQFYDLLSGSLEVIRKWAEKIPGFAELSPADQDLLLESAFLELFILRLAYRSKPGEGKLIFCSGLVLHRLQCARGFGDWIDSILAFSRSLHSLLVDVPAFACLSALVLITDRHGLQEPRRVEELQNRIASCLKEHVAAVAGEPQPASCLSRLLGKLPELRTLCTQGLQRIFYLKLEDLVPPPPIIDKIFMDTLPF
NR4A3, sequence (Q92570 whole entry): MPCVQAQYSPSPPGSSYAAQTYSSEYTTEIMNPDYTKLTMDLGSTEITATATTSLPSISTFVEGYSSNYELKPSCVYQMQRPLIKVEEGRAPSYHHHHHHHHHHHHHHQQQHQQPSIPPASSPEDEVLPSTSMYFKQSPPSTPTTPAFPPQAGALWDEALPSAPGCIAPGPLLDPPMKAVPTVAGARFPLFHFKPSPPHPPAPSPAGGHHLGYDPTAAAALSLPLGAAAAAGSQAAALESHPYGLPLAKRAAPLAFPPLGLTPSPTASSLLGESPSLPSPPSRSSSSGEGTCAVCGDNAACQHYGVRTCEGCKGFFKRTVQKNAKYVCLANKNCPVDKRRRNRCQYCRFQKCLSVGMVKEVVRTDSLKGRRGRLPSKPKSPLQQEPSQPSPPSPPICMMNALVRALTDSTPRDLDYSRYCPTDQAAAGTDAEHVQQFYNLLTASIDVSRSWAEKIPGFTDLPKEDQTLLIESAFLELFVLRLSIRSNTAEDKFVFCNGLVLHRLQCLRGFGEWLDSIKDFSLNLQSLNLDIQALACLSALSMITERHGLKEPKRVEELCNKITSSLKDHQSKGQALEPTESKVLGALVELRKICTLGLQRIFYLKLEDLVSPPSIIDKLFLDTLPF

## Sc1ncnc2nc[nH]c12 [6-mercaptopurine]
NR4A3
  agonist activity: agonist
Excisional wounds; 1 ng/100 μl, day 3, p<0.01 versus naïve control only (FIG. 5)
  width of excisional wounds lower than naïve controls, significance: significantly so
Excisional wounds; [2]
  width of excisional wounds compared to controls: not increased
  width of excisional wounds compared to naïve controls: consistently lower
Excisional wounds; three days after excision, vs diluent control and naïve control
  percentage re-epithelialisation of excisional wounds: trend towards increased re-epithelialisation
NR4A2
  agonist activity: agonist
[1]; 1 ng/100 μl intradermal
  macroscopic appearance of scars (macroscopic VAS): improved
  microscopic appearance of scars (microscopic VAS): significantly improved
[1]; 1 ng/100 μl, compared to both diluent and control wounds (p<0.01)
  inhibition of scarring, microscopic appearance: significantly inhibited scarring
[1]; 1 ng/100 μl, p<0.05 as compared to diluent controls
  inhibition of scarring, macroscopic appearance of treated wounds: statistically significant inhibition of scarring
[1]; 10 ng/100 μl intradermal
  macroscopic appearance of scars (macroscopic VAS): improved
  microscopic appearance of scars (microscopic VAS): significantly improved
[1]; 10 ng/100 μl, compared to diluent and naïve controls (p<0.05)
  inhibition of scarring, microscopic appearance: significantly inhibited scarring
[1]; 1000 ng/100 μl intradermal
  macroscopic appearance of scars (macroscopic VAS): improved
  microscopic appearance of scars (microscopic VAS): significantly improved
[1]; 1000 ng/100 μl, compared to diluent controls (p<0.05)
  inhibition of scarring, microscopic appearance: significantly inhibited scarring
[1]; 1000 ng/100 μl, p<0.05 as compared to both diluent and naïve controls
  inhibition of scarring, macroscopic appearance of treated wounds: statistically significant inhibition of scarring
Incisional wounds; [3]
  width of incisional wounds compared to controls: not increased
  width of incisional wounds compared to naïve controls: consistently lower
Incisional wounds; three days after wounding, comparable with control wounds
  re-epithelialisation of incisional wounds: fully re-epithelialised
NR4A1
  agonist activity: agonist
